Structures are written as SMILES. Where two headings read alike, the source gives them in different places. Starred links: 1 amine or outer side, 2 acyl side, 3 side chain; linkers in the order of their positions; H or OH if unused. Positions of bridges follow the written chain, without caps; N, C: chain ends. Non-standard residues stand in square brackets, D forms with d. Residues, ends and D or L forms follow the SMILES beside them. Pen = CC(C)(S)[C@H](N)C(=O)O; hCys = N[C@@H](CCS)C(=O)O; Dab = NCC[C@H](N)C(=O)O; X1 = O=C(C[*:2])[*:1]; X2 = O=C(C[*:1])[*:2]

The source of these data is patent publication US12673975B2, “Cyclic peptide, cell scaffold material, cell separating material, and medium” (FUJIFILM Corporation, priority 2019, dated 2026).

One data set addresses human integrin αvβ5 (Homo sapiens, UniProt P06756+P18084). Description: Evaluation of integrin binding property (surface plasmon resonance, Biacore 3000, immobilized cyclic peptide). As to the method: A commercially available CMS (a carboxymethyl dextran introduction type, manufactured by GE Healthcare) sensor chip was set in Biacore 3000, which is a surface plasmon resonance apparatus manufactured by GE Healthcare, the sensor was stabilized at a flow rate of 10 μL/min of a HEPES (4-(2-hydroxyethyl)-1-piperazineethanesulfonic acid) buffer solution (20 mM HEPES-HCl, 150 mM NaCl, pH 7.4) for surface plasmon resonance (SPR), and 70 μL of a mixed aqueous solution of 0.2 M 1-(3-dimethylaminopropyl)-3-ethylcarbodiimide (EDC) and 0.04 M N-hydroxysuccinimide (NHS) was added thereto. Here, the concentration unit M represents mol/L, and the same applies hereinafter. Then, 20 μL of the sample solution of each of the above cyclic peptides diluted to 0.2 g/L with the HEPES buffer solution was supplied to the sensor chip, blocking treatment was subsequently carried out with an ethanolamine solution, and washing was carried out with a sodium hydroxide aqueous solution, whereby immobilization was carried out. However, only for the cyclic peptides 125, 126, and 127, in which the number of lysine residues having an amino group as the immobilizing functional group was zero, the amount of the sample solution to be supplied to the sensor chip was set to 500 μL instead of 20 μL. Further, 70 μL of the mixed aqueous solution of 0.2 M EDC and 0.04 M NHS was added to another flow channel of the same sensor chip without immobilizing the sample, and then blocking treatment and washing treatment were carried out. Hereinafter, the obtained immobilization-treated sensor chip is referred to as an “immobilization-treated sensor chip A”.
After adding human integrin αvβ5 for 10 minutes at 25° C., which was diluted to 30 nM using a HEPES buffer solution to which magnesium chloride was added to 5 mM, in each flow channel of the immobilization-treated sensor chip A prepared in (1) above, the same HEPES buffer solution (containing 5 mM magnesium chloride) was allowed to flow as a running buffer for 30 minutes, and measurement was carried out with Biacore 3000. Then, a regeneration treatment of removing human integrin αvβ5 was carried out by allowing a 0.5 M EDTA aqueous solution to flow through each flow channel for 10 minutes. Further, the above-described measurement process consisting of adding integrin for 10 minutes, allowing a running buffer to flow for 30 minutes, carrying out measurement with Biacore 3000, and carrying out regeneration treatment with 0.5 M EDTA aqueous solution was carried out in the same manner for 100 nM human integrin αvβ5, 300 nM human integrin αvβ5, and 1,000 nM human integrin αvβ5. Dissociation constant between the cyclic peptide and human integrin αvβ5 was calculated from the difference between the value measured by Biacore 3000 in the flow channel immobilized with the cyclic peptide and the value measured by Biacore 3000 in the flow channel unimmobilized with the cyclic peptide, in a case where each concentration of human integrin αvβ5 was allowed to flow, and the integrin binding property was evaluated according to the following evaluation standards. It is preferable that the evaluation result satisfies the evaluation standard A, B, or C.
Background: In SPR one partner is held on a chip, and binding of the other changes the refractive index at the surface.

Data set [1] is described as follows: Evaluation of molecule stability (alkali treatment, residual rate by LC/MS). Type of data set: physicochemical. The note with it: for Stability (molecule stability, residual rate of the cyclic peptide rank): alkali treatment, residual rate by LC/MS; for Performance evaluation: Stability (residual rate of cyclic peptide after alkali treatment): 500 μM peptide aqueous solution plus equivalent of 1 M sodium hydroxide, 15° C., 3 hours, LC/MS peak area. As to the method: The molecule stability of the cyclic peptide was evaluated by analyzing the alkali-treated cyclic peptide aqueous solution by liquid chromatography mass spectroscopy (LC/MS).
The alkali treatment was carried out by the following method. A 500 μM cyclic peptide aqueous solution was prepared, an equivalent of 1 M sodium hydroxide aqueous solution was added to this aqueous solution, and the resultant mixture was incubated at 15° C. for 3 hours to obtain an alkali-treated cyclic peptide aqueous solution. The cyclic peptide residual rate was calculated by setting the total area of all peaks of the cyclic peptide before alkali treatment in LC/MS to 100% and determining the proportion of the total area of all peaks in LC/MS of the alkali-treated cyclic peptide aqueous solution, and the molecule stability was evaluated according to the following evaluation standards. It is preferable that the evaluation result satisfies the evaluation standard A, B, or C.
The conditions of the LC/MS used for the evaluation of molecule stability were set as follows. • LC apparatus: Prominence series (pump, column oven, autosampler, detector) (manufactured by Shimadzu Corporation) • MS detector: LC/MS2010EV (manufactured by Shimadzu Corporation) • Column: Cadenza CD-C18, inner diameter 2.0 mm×length 250 mm, particle size: 3 μm (manufactured by Imtakt Corporation) • Eluent A: a solution (pH 3) containing 10 mM ammonium formate as a solute, where the solvent is 100% water. • Eluent B: a solution (pH 3) containing 10 mM ammonium formate as a solute, where the solvent is acetonitrile/water=90/10. • Flow rate: 0.2 mL/min • Injection volume: 4 μL • Gradient: 0% to 30%: Eluent B (0 to 30 minutes), 100%: Eluent B (30 to 40 minutes), 0%: Eluent B (40 to 60 minutes) • Column temperature: 45° C. • Ionization method: electrospray ionization (ESI) positive, ESI negative

Where [2] appears, read: surface plasmon resonance, immobilized cyclic peptide, human integrin αvβ5, read-out: Binding activity (integrin binding property, dissociation constant rank).
The mark [3] stands for this setting: SPR, 25° C., HEPES buffer with 5 mM magnesium chloride, integrin 30-1,000 nM, read-out: Performance evaluation: Binding activity (dissociation constant between the cyclic peptide and human integrin αvβ5).

human integrin αvβ5, sequence (P06756 31-1048): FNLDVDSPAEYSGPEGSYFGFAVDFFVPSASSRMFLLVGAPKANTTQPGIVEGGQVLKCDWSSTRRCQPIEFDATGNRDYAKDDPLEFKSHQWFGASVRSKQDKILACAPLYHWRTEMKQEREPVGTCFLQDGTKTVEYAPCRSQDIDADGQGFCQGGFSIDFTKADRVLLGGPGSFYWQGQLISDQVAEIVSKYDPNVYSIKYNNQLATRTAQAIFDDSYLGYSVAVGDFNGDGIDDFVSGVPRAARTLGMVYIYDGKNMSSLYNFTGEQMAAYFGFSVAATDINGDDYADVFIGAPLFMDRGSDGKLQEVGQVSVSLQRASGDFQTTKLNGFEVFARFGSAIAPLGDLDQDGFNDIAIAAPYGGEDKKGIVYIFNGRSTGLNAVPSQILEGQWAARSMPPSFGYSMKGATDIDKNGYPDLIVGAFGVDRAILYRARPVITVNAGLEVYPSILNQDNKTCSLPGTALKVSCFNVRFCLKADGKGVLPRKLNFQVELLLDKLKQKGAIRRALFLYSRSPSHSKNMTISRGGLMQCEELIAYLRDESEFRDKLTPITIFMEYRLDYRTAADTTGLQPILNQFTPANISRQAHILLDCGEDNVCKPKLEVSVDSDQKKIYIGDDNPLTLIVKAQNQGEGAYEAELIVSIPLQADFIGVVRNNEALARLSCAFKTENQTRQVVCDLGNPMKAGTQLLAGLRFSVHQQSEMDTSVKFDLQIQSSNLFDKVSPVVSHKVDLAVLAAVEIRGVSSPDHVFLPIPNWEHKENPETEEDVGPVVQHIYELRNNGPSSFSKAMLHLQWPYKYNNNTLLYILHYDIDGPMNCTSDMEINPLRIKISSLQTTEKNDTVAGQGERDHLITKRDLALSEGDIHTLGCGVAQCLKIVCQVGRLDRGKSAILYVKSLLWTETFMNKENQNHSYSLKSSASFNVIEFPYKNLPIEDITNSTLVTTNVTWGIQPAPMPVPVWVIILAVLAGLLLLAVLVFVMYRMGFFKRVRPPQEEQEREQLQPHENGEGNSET
human integrin αvβ5, sequence (P18084 24-799): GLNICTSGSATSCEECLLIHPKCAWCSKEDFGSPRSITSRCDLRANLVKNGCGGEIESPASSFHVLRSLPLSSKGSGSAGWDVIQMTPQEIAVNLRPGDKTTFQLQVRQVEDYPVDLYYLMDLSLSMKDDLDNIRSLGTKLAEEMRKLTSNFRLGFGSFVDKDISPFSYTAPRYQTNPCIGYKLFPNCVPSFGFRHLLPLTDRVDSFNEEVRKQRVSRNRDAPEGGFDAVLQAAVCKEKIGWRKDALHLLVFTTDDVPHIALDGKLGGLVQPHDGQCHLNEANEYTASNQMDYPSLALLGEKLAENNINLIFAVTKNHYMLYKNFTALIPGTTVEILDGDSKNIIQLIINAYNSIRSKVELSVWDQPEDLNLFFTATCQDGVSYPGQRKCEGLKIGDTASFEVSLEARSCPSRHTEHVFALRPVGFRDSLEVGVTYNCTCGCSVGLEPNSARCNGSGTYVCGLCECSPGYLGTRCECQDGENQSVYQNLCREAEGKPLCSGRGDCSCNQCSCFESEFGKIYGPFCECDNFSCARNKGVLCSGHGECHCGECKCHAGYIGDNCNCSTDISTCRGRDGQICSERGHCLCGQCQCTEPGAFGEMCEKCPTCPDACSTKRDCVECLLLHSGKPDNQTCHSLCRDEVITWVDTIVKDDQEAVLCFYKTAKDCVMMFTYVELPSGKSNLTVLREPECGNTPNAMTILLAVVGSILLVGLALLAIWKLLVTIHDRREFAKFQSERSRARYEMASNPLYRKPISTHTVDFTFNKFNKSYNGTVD

As to `C[C@@H]1NC(=O)[C@H](Cc2ccccc2)NC(=O)[C@H]([C@@H](C)O)NC(=O)[C@H](CC(=O)O)NC(=O)CNC(=O)[C@H](CCCNC(=N)N)NC(=O)[C@@H]2CCCN2C(=O)[C@H](CC(=O)O)NC(=O)[C@@H](NC(=O)[C@H](CCCCN)NC(=O)[C@H](CCCCN)NC(=O)[C@@H](N)CCCCN)CCSCC(=O)NCC[C@@H](C(=O)O)NC1=O` [Cyclic peptide 144, KKK-(Hcy)-DPRGDTFA(Dab(acetyl))] (H-KKK[hCys]DPRGDTFA[Dab]-OH; linker 4-13 via X2), on human integrin αvβ5 (setting [2]), the Kd was under 50 nM. For the same compound, the “Stability (molecule stability, residual rate of the cyclic peptide rank)” value in data set [1] is “A (The residual rate of the cyclic peptide is 70% or more.)”.
As for `CC[C@H](C)[C@@H]1NC(=O)[C@@H](NC(=O)[C@H](C)NC(=O)[C@H](CCCCN)NC(=O)[C@H](CCCCN)NC(=O)[C@@H](N)CCCCN)CCSCC(=O)NCC[C@@H](C(=O)N[C@@H](C)C(=O)O)NC(=O)[C@H](CCCNC(=N)N)NC(=O)[C@H](Cc2ccccc2)NC(=O)[C@H]([C@@H](C)O)NC(=O)[C@H](CC(=O)O)NC(=O)CNC(=O)[C@H](CCCNC(=N)N)NC(=O)[C@H]([C@@H](C)O)NC1=O` [Cyclic peptide 76, KKKA-(Hcy)-ITRGDTFR(Dab(acetyl))A] (H-KKKA[hCys]ITRGDTFR[Dab]A-OH; linker 5-14 via X2), the Kd at human integrin αvβ5 (setting [3]) was in the range of 50 to 100 nM. Besides, in data set [1], the “Performance evaluation: Stability (residual rate of cyclic peptide after alkali treatment)” value is “A (The residual rate of the cyclic peptide is 70% or more.)”.
`CC(C)[C@@H]1NC(=O)[C@H](CC(=O)O)NC(=O)CNC(=O)[C@H](CCCNC(=N)N)NC(=O)[C@@H]2CCCN2C(=O)[C@H](C(C)C)NC(=O)[C@@H](NC(=O)[C@H](CCCCN)NC(=O)[C@H](CCCCN)NC(=O)[C@@H](N)CCCCN)CCSCC(=O)NCC[C@@H](C(=O)O)NC(=O)[C@H](C)NC(=O)[C@H](Cc2ccccc2)NC1=O` [Cyclic peptide 151, KKK-(Hcy)-VPRGDVFA(Dab(acetyl))] (H-KKK[hCys]VPRGDVFA[Dab]-OH; linker 4-13 via X2): at human integrin αvβ5 (setting [2]), the Kd was under 50 nM. Further, the “Stability (molecule stability, residual rate of the cyclic peptide rank)” value in data set [1] was “A (The residual rate of the cyclic peptide is 70% or more.)”.
For the compound `CC[C@H](C)[C@@H]1NC(=O)[C@@H](NC(=O)CNC(=O)[C@H](CCCCN)NC(=O)[C@H](CCCCN)NC(=O)[C@@H](N)CCCCN)CCNC(=O)CSC[C@@H](C(=O)N[C@@H](C)C(=O)O)NC(=O)[C@H](CCCNC(=N)N)NC(=O)[C@H](Cc2ccccc2)NC(=O)[C@H]([C@@H](C)O)NC(=O)[C@H](CC(=O)O)NC(=O)CNC(=O)[C@H](CCCNC(=N)N)NC(=O)[C@@H]2CCCN2C1=O` [Cyclic peptide 138, KKKG(Dab(acetyl))IPRGDTFR(C)A] (H-KKKG[Dab]IPRGDTFRCA-OH; linker 5-14 via X1), the Kd on human integrin αvβ5 (setting [2]) was in the range of 50 to 100 nM. The “Stability (molecule stability, residual rate of the cyclic peptide rank)” value in data set [1] is “C (The residual rate of the cyclic peptide is 30% or more and less than 50%.)”.
With `CC[C@H](C)[C@@H]1NC(=O)[C@@H](NC(=O)CNC(=O)[C@H](CCCCN)NC(=O)[C@H](CCCCN)NC(=O)[C@@H](N)CCCCN)CCCCNC(=O)CSC(C)(C)[C@@H](C(=O)N[C@@H](C)C(=O)O)NC(=O)[C@H](CCCNC(=N)N)NC(=O)[C@H](Cc2ccccc2)NC(=O)[C@H]([C@@H](C)O)NC(=O)[C@H](CC(=O)O)NC(=O)CNC(=O)[C@H](CCCNC(=N)N)NC(=O)[C@@H]2CCCN2C1=O` [Cyclic peptide 135, KKKG(Lys(acetyl))IPRGDTFR-(Pen)-A] (H-KKKGKIPRGDTFR[Pen]A-OH; linker 5-14 via X1), the Kd at human integrin αvβ5 (setting [2]) is 50 to 100 nM. For the same compound, the “Stability (molecule stability, residual rate of the cyclic peptide rank)” value in data set [1] was “A (The residual rate of the cyclic peptide is 70% or more.)”.
In the case of `CC[C@H](C)[C@@H]1NC(=O)[C@@H](NC(=O)[C@H](C)NC(=O)[C@H](CCCCN)NC(=O)[C@H](CCCCN)NC(=O)[C@@H](N)CCCCN)CCSCC(=O)NCC[C@@H](C(=O)N[C@@H](C)C(=O)O)NC(=O)[C@H](C)NC(=O)[C@H](Cc2ccccc2)NC(=O)[C@H](C)NC(=O)[C@H](CC(=O)O)NC(=O)CNC(=O)[C@H](CCCNC(=N)N)NC(=O)[C@@H]2CCCN2C1=O` [Cyclic peptide 90, KKKA-(Hcy)-IPRGDAFA(Dab(acetyl))A] (H-KKKA[hCys]IPRGDAFA[Dab]A-OH; linker 5-14 via X2), the Kd at human integrin αvβ5 (setting [3]) is under 50 nM. Also, the “Performance evaluation: Stability (residual rate of cyclic peptide after alkali treatment)” value in data set [1] is given as “A (The residual rate of the cyclic peptide is 70% or more.)”.
On the same counts, the results for `CC[C@H](C)[C@@H]1NC(=O)[C@@H](NC(=O)[C@H](CCCCN)NC(=O)[C@H](CCCCN)NC(=O)[C@@H](N)CCCCN)CCSCC(=O)NCC[C@@H](C(=O)N[C@@H](C)C(=O)O)NC(=O)[C@H](Cc2ccccc2)NC(=O)[C@H](CC(N)=O)NC(=O)[C@H](CC(=O)O)NC(=O)CNC(=O)[C@H](CCCNC(=N)N)NC(=O)[C@@H]2CCCN2C1=O` [Cyclic peptide 10, KKK-(Hcy)-IPRGDNF(Dab(acetyl))A] (H-KKK[hCys]IPRGDNF[Dab]A-OH; linker 4-12 via X2) are 50 to 100 nM and “A (The residual rate of the cyclic peptide is 70% or more.)”.
Turning to `CC[C@H](C)[C@@H]1NC(=O)[C@@H](NC(=O)CNC(=O)[C@H](CCCCN)NC(=O)[C@H](CCCCN)NC(=O)[C@@H](N)CCCCN)CCCCNC(=O)CSC[C@@H](C(=O)N[C@@H](C)C(=O)O)NC(=O)[C@H](CCCNC(=N)N)NC(=O)[C@H](Cc2ccccc2)NC(=O)[C@H]([C@@H](C)O)NC(=O)[C@H](CC(=O)O)NC(=O)CNC(=O)[C@H](CCCNC(=N)N)NC(=O)[C@@H]2CCCN2C1=O` [Cyclic peptide 140, KKKG(Lys(acetyl))IPRGDTFR(C)A] (H-KKKGKIPRGDTFRCA-OH; linker 5-14 via X1), the Kd at human integrin αvβ5 (setting [2]) lay within 50 to 100 nM. The “Stability (molecule stability, residual rate of the cyclic peptide rank)” value in data set [1] is “C (The residual rate of the cyclic peptide is 30% or more and less than 50%.)”.
Turning to `CC(C)[C@@H]1NC(=O)[C@H](CC(=O)O)NC(=O)CNC(=O)[C@H](CCCNC(=N)N)NC(=O)[C@H]([C@@H](C)O)NC(=O)[C@H](C(C)C)NC(=O)[C@@H](NC(=O)[C@H](C)NC(=O)[C@H](CCCCN)NC(=O)[C@H](CCCCN)NC(=O)[C@@H](N)CCCCN)CCSCC(=O)NCC[C@@H](C(=O)N[C@@H](C)C(=O)O)NC(=O)[C@H]([C@@H](C)O)NC(=O)[C@H](Cc2ccccc2)NC1=O` [Cyclic peptide 113, KKKA-(Hcy)-VTRGDVFT(Dab(acetyl))A] (H-KKKA[hCys]VTRGDVFT[Dab]A-OH; linker 5-14 via X2), the Kd at human integrin αvβ5 (setting [2]) lay within 50 to 100 nM. In addition, the “Stability (molecule stability, residual rate of the cyclic peptide rank)” value in data set [1] is “A (The residual rate of the cyclic peptide is 70% or more.)”.
